Measurements from PMC4370687, “Functional Characterization of the 1,5-Benzodiazepine Clobazam and Its Major Active Metabolite N-Desmethylclobazam at Human GABAA Receptors Expressed in Xenopus laevis Oocytes” (PLoS ONE, 2015).

Key:
[1] = molecular target: T1, human α2β2γ2S GABAAR (Homo sapiens, UniProt P18507+P47869+P47870); experiment: GABA concentration-response, TEVC electrophysiology in Xenopus oocytes; type: cell-based; conditions: GABA as agonist
T1 construct: expressed in transfected cells; host or cells: Xenopus laevis oocytes (cRNA injection, α:β2:γ2S 1:1:1; 1:1:5 in the zolpidem comparison)
Protocol: (§1) The cDNAs encoding the human GABAAR subunits were linearized with DraIII (α1, α2, α3, α5 and α6), SmaI (β2 and γ2S) or StuI (δ) and used as templates for in vitro cRNA synthesis using the T7 mMESSAGE mMACHINE High Yield Capped RNA Transcription Kit (Life Technologies Corporation, Carlsbad, CA, USA). Except where otherwise indicated, Xenopus oocytes were injected with 36.8 nL cRNA solution encoding for α1β2γ2S, α2β2γ2S, α3β2γ2S and α5β2γ2S GABAARs in a 1:1:1 α:β2:γ2S ratio (2.7 ng/μL of each subunit), with 46 nL cRNA solution encoding for the α6β2δ GABAAR in a 10:1:10 α6:β2:δ ratio (1:0.1:1 μg/μL), with 18 nL cRNA solution encoding for the α1β2 GABAAR in a 1:1 α1:β2 ratio (0.6:0.6 μg/μL), or with 46 nL cRNA encoding for α6β2 (α6:β2 ratio: 1:0.1 μg/μL). Following injection, the oocytes were incubated at 18°C in modified Barth’s solution [88 mM NaCl, 1 mM KCl, 15 mM HEPES (pH 7.5), 2.4 mM NaHCO3, 0.41 mM CaCl2, 0.82 mM MgSO4, 0.3 mM Ca(NO3)2, 100 U/mL penicillin and 100 μg/mL streptomycin]. Electrophysiological recordings were performed 3 to 6 days after injection.
(§2) Electrophysiological recordings were performed using the TEVC technique on Xenopus oocytes expressing various GABAAR combinations using a protocol adapted from previous studies. […] Cells were impaled with agar-plugged 0.5–1 MΩ electrodes containing 3 M KCl and voltage clamped at −70 mV by a Gene Clamp 500B amplifier (Axon Instruments, Union City, CA, USA) and recorded with pClamp 10 (Windows version, Molecular Devices, LLC, Sunnyvale, CA, USA). The oocytes were continuously perfused with Ringer buffer, and the test compounds were applied in the perfusate. Experiments were performed at room temperature and each data point represents the mean ± S.E.M. value of recordings performed on at least two oocytes from at least two different batches of oocytes. The recorded baseline-to-peak current amplitudes were analyzed using Clampfit 10.1 (Axon Instruments, Union City, CA, USA). […]

[2] = molecular target: T2, human α3β2γ2S GABAAR (Homo sapiens, UniProt P18507+P34903+P47870); experiment: as above; type: cell-based; conditions: GABA as agonist
T2 construct: expressed in transfected cells; host or cells: Xenopus laevis oocytes (cRNA injection, 1:1:1)
Protocol: as §1, §2

[3] = molecular target: T3, human α5β2γ2S GABAAR (Homo sapiens, UniProt P18507+P31644+P47870); experiment: as above; type: cell-based; conditions: GABA as agonist
T3 construct: expressed in transfected cells; host or cells: Xenopus laevis oocytes (cRNA injection, 1:1:1)
Protocol: as §1, §2

[4] = molecular target: T4, human α6β2 GABAAR (Homo sapiens, UniProt P47870+Q16445); experiment: as above; type: cell-based; conditions: GABA as agonist
T4 construct: expressed in transfected cells; host or cells: Xenopus laevis oocytes (cRNA injection)
Protocol: as §1, with “Following injection, the oocytes were incubated at 18°C in modified Barth’s solution [88 mM NaCl, 1 mM KCl, 15 mM HEPES (pH 7.5), 2.4 mM NaHCO3, 0.41 mM CaCl2, 0.82 mM MgSO4, 0.3 mM Ca(NO3)2, 100 U/mL penicillin and 100 μg/mL streptomycin]. Electrophysiological recordings were performed 3 to 6 days after injection.” left out
(§3) Electrophysiological recordings were performed using the TEVC technique on Xenopus oocytes expressing various GABAAR combinations using a protocol adapted from previous studies. […] Cells were impaled with agar-plugged 0.5–1 MΩ electrodes containing 3 M KCl and voltage clamped at −70 mV by a Gene Clamp 500B amplifier (Axon Instruments, Union City, CA, USA) and recorded with pClamp 10 (Windows version, Molecular Devices, LLC, Sunnyvale, CA, USA). […] The recorded baseline-to-peak current amplitudes were analyzed using Clampfit 10.1 (Axon Instruments, Union City, CA, USA). […]

[5] = molecular target: T5, human α1β2γ2S GABAAR (Homo sapiens, UniProt P14867+P18507+P47870); experiment: as above; type: cell-based; design: expressed in transfected cells; host or cells: Xenopus laevis oocytes (cRNA injection, α:β2:γ2S 1:1:1); conditions: GABA as agonist
Protocol: as §1, with “Following injection, the oocytes were incubated at 18°C in modified Barth’s solution [88 mM NaCl, 1 mM KCl, 15 mM HEPES (pH 7.5), 2.4 mM NaHCO3, 0.41 mM CaCl2, 0.82 mM MgSO4, 0.3 mM Ca(NO3)2, 100 U/mL penicillin and 100 μg/mL streptomycin]. Electrophysiological recordings were performed 3 to 6 days after injection.” left out
as §3

[6] = molecular target: T1, human α2β2γ2S GABAAR; experiment: Potentiation of GABA EC20-evoked currents, TEVC in Xenopus oocytes; type: cell-based
Protocol: as §1
(§4) Electrophysiological recordings were performed using the TEVC technique on Xenopus oocytes expressing various GABAAR combinations using a protocol adapted from previous studies. […] Cells were impaled with agar-plugged 0.5–1 MΩ electrodes containing 3 M KCl and voltage clamped at −70 mV by a Gene Clamp 500B amplifier (Axon Instruments, Union City, CA, USA) and recorded with pClamp 10 (Windows version, Molecular Devices, LLC, Sunnyvale, CA, USA). The oocytes were continuously perfused with Ringer buffer, and the test compounds were applied in the perfusate. Experiments were performed at room temperature and each data point represents the mean ± S.E.M. value of recordings performed on at least two oocytes from at least two different batches of oocytes. The recorded baseline-to-peak current amplitudes were analyzed using Clampfit 10.1 (Axon Instruments, Union City, CA, USA). […] The presence of δ in cell surface-expressed receptors in α6β2δ-injected oocytes was confirmed on a routinely basis using the δ-GABAAR selective PAM DS2 (1 μM). Furthermore, taking advantage of the differential sensitivity of αβ and αβδ receptors to Zn^2+ as antagonist, 1 μM ZnCl2 was used to verify that a homogenous population of ternary α6β2δ receptor complexes was expressed in these oocytes.
(§5) Two to five minutes of wash time between each application were permitted to overcome receptor desensitization. […] Concentration-response curves for the benzodiazepines were fitted using Equation 1.
To address this aspect, we compared the maximum responses mediated by saturating concentrations (3 μM) of clobazam, N-desmethylclobazam, and clonazepam at the GABAARs with the maximal responses mediated by a saturating concentration of diazepam, a 1,4-benzodiazepine often referred to as a “full benzodiazepine agonist”. […] We also compared the maximum degree of potentiation mediated by clobazam at the α2β2γ2S GABAAR with the maximal responses induced by a saturating concentration of zolpidem. […] In this experiment cRNA for α2β2γ2S was injected in a ratio of 1:1:5 (α2:β2:γ2S) to facilitate the expression of a homogenous population of γ2S-containing complexes.

[7] = molecular target: T2, human α3β2γ2S GABAAR; experiment: as above; type: cell-based
Protocol: as §1, §4, §5

[8] = molecular target: T3, human α5β2γ2S GABAAR; experiment: as above; type: cell-based
Protocol: as §1, §4, §5

[9] = molecular target: T6, human α6β2δ GABAAR (Homo sapiens, UniProt P47870+Q16445); experiment: as above; type: cell-based
T6 construct: expressed in transfected cells; host or cells: Xenopus laevis oocytes (cRNA injection, α6:β2:δ 10:1:10)
Protocol: as §1, §4, §5

[10] = molecular target: T5, human α1β2γ2S GABAAR; conditions: % of the response evoked by GABA EC20 (EC20 response = 100%)
Protocol: (§6) Electrophysiological recordings were performed using the TEVC technique on Xenopus oocytes expressing various GABAAR combinations using a protocol adapted from previous studies [44, 45]. […] Cells were impaled with agar-plugged 0.5–1 MΩ electrodes containing 3 M KCl and voltage clamped at −70 mV by a Gene Clamp 500B amplifier (Axon Instruments, Union City, CA, USA) and recorded with pClamp 10 (Windows version, Molecular Devices, LLC, Sunnyvale, CA, USA). The oocytes were continuously perfused with Ringer buffer, and the test compounds were applied in the perfusate. Experiments were performed at room temperature and each data point represents the mean ± S.E.M. value of recordings performed on at least two oocytes from at least two different batches of oocytes. The recorded baseline-to-peak current amplitudes were analyzed using Clampfit 10.1 (Axon Instruments, Union City, CA, USA).

[11] = test system: rat α3β3γ2L GABAAR; conditions: patch clamp, cited from earlier work
[12] = test system: human α1,2,3,5β2γ2S GABAARs; conditions: cited from earlier work
[13] = test system: α1β2γ1 receptors; conditions: Xenopus oocytes; cited from earlier work
[14] = molecular target: T5, human α1β2γ2S GABAAR; experiment: cell-based
Protocol: as §6

[15] = humans; cited from earlier work
[16] = % of the response evoked by GABA EC20 (EC20 response = 100%)

T2 sequence (P34903 29-492): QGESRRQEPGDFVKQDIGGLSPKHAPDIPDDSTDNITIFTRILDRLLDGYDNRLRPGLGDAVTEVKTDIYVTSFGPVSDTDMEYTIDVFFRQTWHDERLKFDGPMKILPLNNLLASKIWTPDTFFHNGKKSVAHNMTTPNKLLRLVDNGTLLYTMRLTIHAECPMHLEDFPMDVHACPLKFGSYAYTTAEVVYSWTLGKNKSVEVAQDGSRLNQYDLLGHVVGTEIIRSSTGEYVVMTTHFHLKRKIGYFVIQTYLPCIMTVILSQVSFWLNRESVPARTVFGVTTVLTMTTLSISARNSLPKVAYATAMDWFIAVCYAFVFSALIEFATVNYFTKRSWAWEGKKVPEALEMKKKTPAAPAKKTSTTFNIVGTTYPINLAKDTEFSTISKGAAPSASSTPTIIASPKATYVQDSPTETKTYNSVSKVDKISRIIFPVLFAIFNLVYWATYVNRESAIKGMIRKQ
T2 sequence (P47870 26-474 isoform P47870-1 limits assumed): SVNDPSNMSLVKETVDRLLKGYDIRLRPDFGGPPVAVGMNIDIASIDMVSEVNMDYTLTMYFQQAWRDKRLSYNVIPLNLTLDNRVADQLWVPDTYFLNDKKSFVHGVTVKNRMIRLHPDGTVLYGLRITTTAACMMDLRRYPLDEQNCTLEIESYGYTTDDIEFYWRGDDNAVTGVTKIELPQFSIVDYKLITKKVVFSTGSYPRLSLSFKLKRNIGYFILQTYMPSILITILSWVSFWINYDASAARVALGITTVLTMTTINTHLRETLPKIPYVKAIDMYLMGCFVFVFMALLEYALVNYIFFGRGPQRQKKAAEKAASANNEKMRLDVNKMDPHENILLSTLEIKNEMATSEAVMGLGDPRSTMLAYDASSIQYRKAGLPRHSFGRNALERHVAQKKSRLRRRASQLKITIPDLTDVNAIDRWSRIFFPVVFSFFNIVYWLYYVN
T2 sequence (P18507 40-467 isoform P18507-1 limits assumed): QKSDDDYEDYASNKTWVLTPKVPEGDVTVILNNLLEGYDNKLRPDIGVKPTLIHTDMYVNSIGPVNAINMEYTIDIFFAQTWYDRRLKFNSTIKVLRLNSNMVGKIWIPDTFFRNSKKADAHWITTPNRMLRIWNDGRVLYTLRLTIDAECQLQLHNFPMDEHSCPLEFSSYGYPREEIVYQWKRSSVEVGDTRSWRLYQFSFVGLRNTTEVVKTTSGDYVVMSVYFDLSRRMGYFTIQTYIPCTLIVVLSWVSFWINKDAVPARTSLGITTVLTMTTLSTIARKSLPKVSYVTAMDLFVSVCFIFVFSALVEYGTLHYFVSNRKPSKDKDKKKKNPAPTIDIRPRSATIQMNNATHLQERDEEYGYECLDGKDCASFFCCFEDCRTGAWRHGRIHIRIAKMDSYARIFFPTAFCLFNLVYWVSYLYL
T5 sequence (P14867 28-456): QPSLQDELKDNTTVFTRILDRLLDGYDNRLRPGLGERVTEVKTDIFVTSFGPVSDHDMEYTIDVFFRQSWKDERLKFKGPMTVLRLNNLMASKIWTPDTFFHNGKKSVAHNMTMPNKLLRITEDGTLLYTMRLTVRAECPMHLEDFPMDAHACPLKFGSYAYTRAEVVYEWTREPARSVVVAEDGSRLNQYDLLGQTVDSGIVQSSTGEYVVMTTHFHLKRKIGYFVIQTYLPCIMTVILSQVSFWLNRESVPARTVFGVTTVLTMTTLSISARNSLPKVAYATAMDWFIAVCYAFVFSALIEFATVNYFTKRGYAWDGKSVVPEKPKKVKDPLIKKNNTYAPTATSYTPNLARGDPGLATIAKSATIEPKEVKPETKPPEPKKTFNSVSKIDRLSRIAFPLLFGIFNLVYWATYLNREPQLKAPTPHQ
T5 sequence (P47870 26-474 isoform P47870-1 limits assumed): as the sequence (P47870 26-474 isoform P47870-1 limits assumed) above
T5 sequence (P18507 40-467 isoform P18507-1 limits assumed): as the sequence (P18507 40-467 isoform P18507-1 limits assumed) above
T1 sequence (P47869 29-451): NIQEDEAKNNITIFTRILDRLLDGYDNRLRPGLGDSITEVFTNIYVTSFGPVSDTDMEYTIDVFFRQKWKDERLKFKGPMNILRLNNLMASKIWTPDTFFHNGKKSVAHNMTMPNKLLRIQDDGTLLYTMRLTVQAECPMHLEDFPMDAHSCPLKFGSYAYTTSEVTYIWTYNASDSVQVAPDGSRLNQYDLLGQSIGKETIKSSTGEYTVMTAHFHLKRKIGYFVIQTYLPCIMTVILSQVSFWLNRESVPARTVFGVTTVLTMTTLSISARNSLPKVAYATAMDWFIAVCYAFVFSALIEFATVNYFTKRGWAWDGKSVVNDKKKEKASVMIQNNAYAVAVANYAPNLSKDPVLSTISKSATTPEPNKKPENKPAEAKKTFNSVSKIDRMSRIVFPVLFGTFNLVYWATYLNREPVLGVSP
T1 sequence (P47870 26-474 isoform P47870-1 limits assumed): as the sequence (P47870 26-474 isoform P47870-1 limits assumed) above
T1 sequence (P18507 40-467 isoform P18507-1 limits assumed): as the sequence (P18507 40-467 isoform P18507-1 limits assumed) above
T3 sequence (P31644 32-462): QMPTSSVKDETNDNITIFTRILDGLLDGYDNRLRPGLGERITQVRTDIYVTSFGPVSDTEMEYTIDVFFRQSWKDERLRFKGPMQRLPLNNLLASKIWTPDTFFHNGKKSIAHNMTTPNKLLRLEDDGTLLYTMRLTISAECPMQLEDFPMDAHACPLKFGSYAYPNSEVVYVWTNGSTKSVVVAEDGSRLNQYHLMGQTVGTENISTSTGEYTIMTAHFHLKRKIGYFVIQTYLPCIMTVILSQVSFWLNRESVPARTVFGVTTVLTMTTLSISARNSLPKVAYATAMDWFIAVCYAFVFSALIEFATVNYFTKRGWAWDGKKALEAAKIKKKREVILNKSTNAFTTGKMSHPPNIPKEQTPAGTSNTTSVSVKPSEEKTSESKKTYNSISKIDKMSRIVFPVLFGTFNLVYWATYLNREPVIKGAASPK
T3 sequence (P47870 26-474 isoform P47870-1 limits assumed): as the sequence (P47870 26-474 isoform P47870-1 limits assumed) above
T3 sequence (P18507 40-467 isoform P18507-1 limits assumed): as the sequence (P18507 40-467 isoform P18507-1 limits assumed) above
T6 sequence (Q16445 20-453): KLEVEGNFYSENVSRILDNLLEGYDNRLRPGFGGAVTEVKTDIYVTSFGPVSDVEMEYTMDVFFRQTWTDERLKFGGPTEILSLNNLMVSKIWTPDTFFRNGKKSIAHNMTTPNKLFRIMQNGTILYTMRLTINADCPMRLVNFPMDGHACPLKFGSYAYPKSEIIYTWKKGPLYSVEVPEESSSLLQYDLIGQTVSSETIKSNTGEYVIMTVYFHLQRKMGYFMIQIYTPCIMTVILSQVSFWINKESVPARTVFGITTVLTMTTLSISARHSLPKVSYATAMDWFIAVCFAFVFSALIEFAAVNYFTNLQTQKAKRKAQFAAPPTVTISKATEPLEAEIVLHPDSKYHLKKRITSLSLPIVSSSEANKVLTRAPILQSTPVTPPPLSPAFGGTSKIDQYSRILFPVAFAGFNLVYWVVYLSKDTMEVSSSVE
T6 sequence (P47870 26-474 isoform P47870-1 limits assumed): as the sequence (P47870 26-474 isoform P47870-1 limits assumed) above
T6 sequence (O14764 25-452 partner): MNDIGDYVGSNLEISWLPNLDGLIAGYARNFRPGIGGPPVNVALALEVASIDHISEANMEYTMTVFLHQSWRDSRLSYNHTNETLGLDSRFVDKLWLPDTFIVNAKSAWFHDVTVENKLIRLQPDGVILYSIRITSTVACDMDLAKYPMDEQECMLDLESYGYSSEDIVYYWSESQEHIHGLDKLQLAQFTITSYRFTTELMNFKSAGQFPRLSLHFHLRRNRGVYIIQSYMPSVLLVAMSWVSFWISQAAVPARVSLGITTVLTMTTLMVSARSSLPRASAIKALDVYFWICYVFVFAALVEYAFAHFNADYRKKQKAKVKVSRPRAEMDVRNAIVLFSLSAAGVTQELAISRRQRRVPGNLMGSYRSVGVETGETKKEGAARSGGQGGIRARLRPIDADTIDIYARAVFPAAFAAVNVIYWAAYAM
T4 sequence (Q16445 20-453): as the sequence (Q16445 20-453) above
T4 sequence (P47870 26-474 isoform P47870-1 limits assumed): as the sequence (P47870 26-474 isoform P47870-1 limits assumed) above

SMILES | Hill slope nH ± S.E.M. [1] | Hill slope nH ± S.E.M. [2] | Hill slope nH ± S.E.M. [3] | Hill slope nH ± S.E.M. [4] | Hill slope nH ± S.E.M. [5] | EC50 [6] [nM] | Imax ± S.E.M. [6, 16] [%] | EC50 [7] [nM] | Imax ± S.E.M. [7, 16] [%] | EC50 [8] [nM] | Imax ± S.E.M. [8, 16] [%] | Imax ± S.E.M. [9, 16] [%] | EC50 ([9]; EC50, PAM, co-applied with GABA EC20, N-desmethylclobazam value estimated, curve not saturated at 1 mM) [nM] | Imax ± S.E.M. [10] [%] | EC50 ([11]; 3 μM GABA (EC10–EC20), HEK-293T cells) [nM] | Imax ([11]; % of the responses evoked by GABA EC10–EC20, HEK-293T cells) [%] | fold higher binding affinity at α2β2γ2S compared to α1β2γ2S [12] [fold] | potentiation of GABA EC5-EC10-evoked responses [13] | EC50 [14] [nM] | plasma half-life [15] [h]
NCCCC(=O)O [GABA, γ-aminobutyric acid] | 1.44 ± 0.07 | 1.22 ± 0.05 | 1.19 ± 0.08 | 0.89 ± 0.09 | 1.19 ± 0.05 |  |  |  |  |  |  |  |  |  |  |  |  |  |  | 
CN1C(=O)CC(=O)N(c2ccccc2)c2cc(Cl)ccc21 [clobazam] |  |  |  |  |  | 138 | 261 ± 6.7 | 240 | 269 ± 0.8 | 174 | 216 ± 7.0 | 528 ± 46 | 55000 | 256 ± 12 | 490 | 487 | 2.5 | negligible potentiation | 132 | 36
